Measured values published in patent US11311624B2, “Inhibitors of MEK/PI3K, JAK/MEK, JAK/PI3K/mTOR and MEK/PI3K/mTOR biological pathways and methods for improving lymphatic uptake, bioavailability, and solubility of therapeutic compounds” (THE REGENTS OF THE UNIVERSITY OF MICHIGAN, priority 2017, dated 2022).
Where two headings read alike, the source gives them in different places.

Legend:
Class 1 PI3K isoforms = details: read-out: selectivity towards the Class 1 PI3K isoforms; cited from earlier work
[1] = Tissue concentration partitioning (plasma, mesenteric lymph node, fat) after single oral dose in Maisine, LC-MS/MS; format: in vivo; details: mice, single oral 10 mg in Maisine; for Kp at 4 h: 4 hour time point; for concentration at 4 h: 4 hours post-dosing
Description: Inhibitor compounds were synthesized to discover the underlying parameters needed in the development of chemical modifiers compatible with attachment to drug molecules to provide a drug having the physiochemical characteristics needed for uptake into the lymphatic system. […] This excipient vehicle contains long chain fatty acids and is used for hydrophobic compound solubilization.
Results were quantified using LC-MS/MS for plasma, mesenteric lymph node (LN) and mesenteric fat tissues.

[2] = Plasma and lymphatic tissue levels after single oral dose of ST-168 or PD901, LC-MS/MS (FIG. 3); format: in vivo; details: mouse; for Kp at 4 h: lymphatic tissue / plasma, single oral dose in ORA-Plus suspension, 4 hours post-administration, read-out: lymphatic/plasma ratio
Experimental: LC-MS/MS quantification of drug concentrations in mouse tissues over time following a single oral dose is shown. FIG. 3 contains block diagrams for formulations in ORA-Plus liquid particulate suspension: FIG. 3A compound ST-168 levels at 4 hours in plasma and lymphatic tissue versus the MEK inhibitor PD0325901 (henceforth referred to as PD901). FIG. 3B ST-168 time dependence in plasma and lymphatic tissue, and formulated in Maisine, FIG. 3C ST-168 time dependence in plasma and lymphatic tissue following 100 mg/kg dose.
In FIG. 3, LC-MS/MS quantification of drug concentrations in mouse tissues over time are shown following a single oral suspension dose of ST-168 delivered in ORA-Plus®. ORA-Plus is an aqueous-based vehicle (ORA-Plus Product Data Sheet available at Perrigo Company's website) containing a synergistic blend of suspending agents having a high degree of colloidal activity. The suspending agents form a structured, gel-like matrix which suspends particles and allow for little settling. ORA-Plus is buffered to a slightly acidic pH to help reduce degradation of medicinal agents through oxidation. The ORA-Plus contains purified water, microcrystalline cellulose, carboxymethylcellulose sodium, xanthan gum, carrageenan, calcium sulfate, trisodium phosphate, citric acid and sodium phosphate as buffers and dimethicone antifoam emulsion, preserved with methylparaben and potassium sorbate. […] Any compound delivered in ORA-Plus is distributed to the plasma and lymphatic system based upon the physiochemical properties of the drug. Thus, the formulation itself only serves to provide for a suspension of drug particulates and dissolution of drug will be based upon water solubility.
This is an important distinction showing that Compound ST-168 has lymphatic absorptive properties because ORA-Plus is not a long chain fatty acid like Maisine. […] Data presented in FIGS. 3A through 3D reveal that the mEG linker technology for chemical coupling with drugs produces solubility properties consistent with formulation and bioavailability required for drug-like pharmaceutical characteristics and improved lymphatic absorption.

MEK1 = MEK1 (Homo sapiens, UniProt Q02750); experiment: In vitro inhibition of MEK1; format: biochemical
Sequence of MEK1 (Q02750 whole entry, species assumed): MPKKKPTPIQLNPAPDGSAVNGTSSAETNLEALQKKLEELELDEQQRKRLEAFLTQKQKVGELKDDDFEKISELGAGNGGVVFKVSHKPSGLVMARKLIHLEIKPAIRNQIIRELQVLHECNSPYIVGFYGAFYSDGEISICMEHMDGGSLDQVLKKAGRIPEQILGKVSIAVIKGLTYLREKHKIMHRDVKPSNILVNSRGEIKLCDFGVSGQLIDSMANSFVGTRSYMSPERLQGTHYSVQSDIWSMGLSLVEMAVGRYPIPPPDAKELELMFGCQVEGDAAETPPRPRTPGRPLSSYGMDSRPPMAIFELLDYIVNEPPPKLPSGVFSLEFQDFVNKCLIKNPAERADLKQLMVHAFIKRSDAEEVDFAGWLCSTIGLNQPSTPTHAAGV

PI3Kα = PI3Kα (Homo sapiens, UniProt P42336); experiment: In vitro inhibition of PI3Kα; format: biochemical
Sequence of PI3Kα (P42336 whole entry, species assumed): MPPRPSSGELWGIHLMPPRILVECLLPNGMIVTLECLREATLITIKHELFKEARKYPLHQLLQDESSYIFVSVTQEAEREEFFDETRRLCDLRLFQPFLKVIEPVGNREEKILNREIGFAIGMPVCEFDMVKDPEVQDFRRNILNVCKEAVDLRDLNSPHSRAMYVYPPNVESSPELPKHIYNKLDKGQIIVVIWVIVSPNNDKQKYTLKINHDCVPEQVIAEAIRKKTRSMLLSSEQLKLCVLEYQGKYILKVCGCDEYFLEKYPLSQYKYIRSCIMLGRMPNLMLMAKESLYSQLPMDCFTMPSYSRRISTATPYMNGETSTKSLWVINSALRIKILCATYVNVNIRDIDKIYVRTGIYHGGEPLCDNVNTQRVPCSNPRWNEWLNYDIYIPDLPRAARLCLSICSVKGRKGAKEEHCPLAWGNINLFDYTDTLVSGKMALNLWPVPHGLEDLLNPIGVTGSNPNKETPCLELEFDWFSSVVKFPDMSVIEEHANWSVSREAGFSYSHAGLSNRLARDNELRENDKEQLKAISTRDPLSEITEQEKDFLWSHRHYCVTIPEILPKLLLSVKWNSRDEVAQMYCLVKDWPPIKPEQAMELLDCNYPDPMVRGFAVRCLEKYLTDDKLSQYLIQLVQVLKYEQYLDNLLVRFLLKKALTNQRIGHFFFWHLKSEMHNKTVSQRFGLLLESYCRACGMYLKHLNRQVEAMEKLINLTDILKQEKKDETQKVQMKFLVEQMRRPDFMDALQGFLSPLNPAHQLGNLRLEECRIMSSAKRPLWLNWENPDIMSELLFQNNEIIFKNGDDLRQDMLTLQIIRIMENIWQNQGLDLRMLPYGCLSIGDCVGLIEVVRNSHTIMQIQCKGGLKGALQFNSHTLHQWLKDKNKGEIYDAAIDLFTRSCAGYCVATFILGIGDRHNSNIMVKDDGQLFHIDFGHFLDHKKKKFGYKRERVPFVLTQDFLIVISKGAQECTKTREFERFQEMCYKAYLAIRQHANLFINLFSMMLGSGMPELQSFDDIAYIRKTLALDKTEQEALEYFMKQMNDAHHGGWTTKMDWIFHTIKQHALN
Sequence of PI3Kα (P27986 whole entry partner, species assumed): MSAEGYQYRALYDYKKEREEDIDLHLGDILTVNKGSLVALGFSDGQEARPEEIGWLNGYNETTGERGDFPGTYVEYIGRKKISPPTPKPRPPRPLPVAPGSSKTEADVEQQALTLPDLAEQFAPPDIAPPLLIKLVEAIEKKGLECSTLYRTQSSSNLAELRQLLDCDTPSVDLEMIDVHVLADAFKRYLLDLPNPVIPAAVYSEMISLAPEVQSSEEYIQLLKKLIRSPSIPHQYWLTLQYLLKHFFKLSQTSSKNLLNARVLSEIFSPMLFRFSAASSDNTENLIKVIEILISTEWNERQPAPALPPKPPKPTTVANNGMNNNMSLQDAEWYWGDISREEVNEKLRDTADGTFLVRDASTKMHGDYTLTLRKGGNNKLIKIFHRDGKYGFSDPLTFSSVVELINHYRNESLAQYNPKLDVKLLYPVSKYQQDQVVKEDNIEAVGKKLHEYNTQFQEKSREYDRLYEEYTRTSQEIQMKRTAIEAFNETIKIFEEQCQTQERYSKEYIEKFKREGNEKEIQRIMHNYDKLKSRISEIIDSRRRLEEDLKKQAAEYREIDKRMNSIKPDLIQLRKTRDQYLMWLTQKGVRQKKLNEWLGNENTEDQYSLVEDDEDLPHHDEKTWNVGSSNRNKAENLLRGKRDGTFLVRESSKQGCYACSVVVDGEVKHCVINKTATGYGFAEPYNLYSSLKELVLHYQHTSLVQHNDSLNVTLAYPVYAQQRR

PI3Kβ = PI3Kβ (Homo sapiens, UniProt P42338); experiment: In vitro inhibition of PI3Kβ; format: biochemical
Sequence of PI3Kβ (P42338 whole entry, species assumed): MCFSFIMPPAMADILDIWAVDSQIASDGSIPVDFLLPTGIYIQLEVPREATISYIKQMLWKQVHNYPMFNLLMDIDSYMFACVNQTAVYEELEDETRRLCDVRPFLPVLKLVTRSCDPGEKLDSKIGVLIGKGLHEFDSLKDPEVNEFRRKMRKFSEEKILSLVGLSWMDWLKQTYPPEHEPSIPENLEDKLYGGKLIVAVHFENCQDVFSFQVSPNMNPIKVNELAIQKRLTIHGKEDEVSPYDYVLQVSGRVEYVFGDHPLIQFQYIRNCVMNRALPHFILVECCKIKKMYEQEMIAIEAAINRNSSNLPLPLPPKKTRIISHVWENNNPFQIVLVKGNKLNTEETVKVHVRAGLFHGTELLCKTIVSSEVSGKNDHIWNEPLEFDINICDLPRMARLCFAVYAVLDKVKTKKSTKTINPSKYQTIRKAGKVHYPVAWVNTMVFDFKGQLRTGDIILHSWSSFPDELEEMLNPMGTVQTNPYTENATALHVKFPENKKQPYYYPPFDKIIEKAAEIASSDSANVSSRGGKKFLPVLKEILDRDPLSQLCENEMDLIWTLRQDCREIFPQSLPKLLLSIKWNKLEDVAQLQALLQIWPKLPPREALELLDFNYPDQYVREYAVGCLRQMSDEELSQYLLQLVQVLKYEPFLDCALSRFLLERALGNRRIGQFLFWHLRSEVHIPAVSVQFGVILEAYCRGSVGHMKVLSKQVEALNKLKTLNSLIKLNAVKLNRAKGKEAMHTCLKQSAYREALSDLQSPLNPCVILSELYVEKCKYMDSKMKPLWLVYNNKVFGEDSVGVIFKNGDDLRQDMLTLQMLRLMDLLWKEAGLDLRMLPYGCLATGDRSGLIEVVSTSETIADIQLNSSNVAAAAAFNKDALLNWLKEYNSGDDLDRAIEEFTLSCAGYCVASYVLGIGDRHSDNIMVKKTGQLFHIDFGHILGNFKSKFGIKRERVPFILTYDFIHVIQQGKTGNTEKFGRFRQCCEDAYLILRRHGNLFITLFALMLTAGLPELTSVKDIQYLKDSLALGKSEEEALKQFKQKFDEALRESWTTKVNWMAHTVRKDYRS
Sequence of PI3Kβ (P27986 whole entry partner, species assumed): as the sequence (P27986 whole entry partner, species assumed) above

PI3Kδ = PI3Kδ (Homo sapiens, UniProt O00329); experiment: In vitro inhibition of PI3Kδ; format: biochemical
PI3Kγ = PI3Kγ (Homo sapiens, UniProt P48736); experiment: In vitro inhibition of PI3Kγ; format: biochemical
Sequence of PI3Kγ (P48736 whole entry, species assumed): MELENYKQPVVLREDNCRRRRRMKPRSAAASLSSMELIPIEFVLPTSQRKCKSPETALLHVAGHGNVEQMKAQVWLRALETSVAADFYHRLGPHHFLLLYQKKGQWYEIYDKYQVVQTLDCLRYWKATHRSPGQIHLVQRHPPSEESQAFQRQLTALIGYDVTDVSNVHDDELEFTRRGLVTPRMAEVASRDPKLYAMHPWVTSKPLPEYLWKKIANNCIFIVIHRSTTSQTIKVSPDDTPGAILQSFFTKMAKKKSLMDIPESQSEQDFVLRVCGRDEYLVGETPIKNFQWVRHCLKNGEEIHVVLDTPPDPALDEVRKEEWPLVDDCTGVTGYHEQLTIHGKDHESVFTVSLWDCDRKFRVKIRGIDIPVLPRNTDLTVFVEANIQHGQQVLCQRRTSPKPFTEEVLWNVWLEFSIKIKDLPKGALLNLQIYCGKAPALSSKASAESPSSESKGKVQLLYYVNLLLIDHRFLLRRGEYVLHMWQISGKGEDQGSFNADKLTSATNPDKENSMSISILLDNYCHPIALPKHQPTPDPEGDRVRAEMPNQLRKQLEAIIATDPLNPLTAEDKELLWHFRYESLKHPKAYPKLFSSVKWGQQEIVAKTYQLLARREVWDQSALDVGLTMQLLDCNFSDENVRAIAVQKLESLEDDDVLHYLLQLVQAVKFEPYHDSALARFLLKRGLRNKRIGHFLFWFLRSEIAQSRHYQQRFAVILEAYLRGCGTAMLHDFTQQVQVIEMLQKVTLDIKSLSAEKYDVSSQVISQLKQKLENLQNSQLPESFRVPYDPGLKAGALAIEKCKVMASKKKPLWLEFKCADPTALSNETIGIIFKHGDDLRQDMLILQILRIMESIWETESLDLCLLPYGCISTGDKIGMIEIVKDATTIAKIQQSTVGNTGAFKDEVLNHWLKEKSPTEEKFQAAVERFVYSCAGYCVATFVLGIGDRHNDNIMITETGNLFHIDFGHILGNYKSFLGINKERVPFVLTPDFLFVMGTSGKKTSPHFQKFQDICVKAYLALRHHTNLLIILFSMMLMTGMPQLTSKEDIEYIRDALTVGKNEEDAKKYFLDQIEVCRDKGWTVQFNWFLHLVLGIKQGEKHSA

A375 xenografts = experiment: Tumor growth inhibition in melanoma xenograft model (FIG. 5C); format: in vivo, nude mice; details: for tumor growth: 400 mg/kg oral once daily, initial 30 days
Experimental: (§1) ADME (absorption, distribution, metabolism, and excretion) studies of ST-168 have shown that ST-168 is bioavailable following administration in mice.
(§2) In FIG. 5A, a two-dimensional assessment of ST-162 and ST-168. […] In FIG. 5B, assessment of dead cells in 3D melanoma spheroids post-treatment with ST-162 and ST-168. A375 melanoma spheroids were treated for 72 h with 20 μM each of ST-162 or ST-168 before staining with Calcein AM and ethidium homodimer-1 for fluorescent microscopy (live/dead viability assay, Molecular Probes). Green fluorescence indicates live cells, and red fluorescence indicates dead cells. Images were obtained with an Olympus IX70 fluorescent microscope using the SPOT advance program. In FIG. 5C tumor growth inhibition by ST-162 and ST-168 in a melanoma xenograft model. Tumor implantation consisted of inoculation of 5×10^6 A375 cells suspended in 100 μL of media into the flank of nude mice. Treatment was initiated once tumors reached >100 mm^3. Mice were randomized into two treatment groups and treated once daily with either vehicle (200 μL of OraPlus) or 400 mg/kg each of ST-162 or ST-168 by oral gavage until sacrifice (42 days). Changes in tumor growth of A375 xenografts were assessed by conducting MRI imaging twice per week. Tumor volume changes between ST-162 and ST-168 treatment were determined to be statistically significant (p<0.05) using an unpaired Student's t test at the last time point. Experimental design: n=4-6 tumors/treatment group.

pERK1/2 and pAKT = experiment: Immunoblot of treated A375 melanoma cells (FIG. 5A); format: cell-based, human; details: 1 h, 20 μM
Experimental: as §1
as §2, with “Mice were randomized into two treatment groups and treated once daily with either vehicle (200 μL of OraPlus) or 400 mg/kg each of ST-162 or ST-168 by oral gavage until sacrifice (42 days).” left out, “Experimental design: n=4-6 tumors/treatment group.” left out

[3] = Tolerance in colorectal, glioma and melanoma mouse xenograft models; format: in vivo; details: 400 mg/kg orally, suspended in ORA-Plus, glioma, melanoma xenograft models
Description: as §1

[4] = test system: TGFα-transgenic mouse model of idiopathic pulmonary fibrosis (IPF); experiment: Dox-inducible TGFα-transgenic mouse model of idiopathic pulmonary fibrosis; format: in vivo, mice; details: 400 mg/kg PO, 3 week follow up CT scan
Experimental: Treatment of inflammatory-mediated fibrotic diseases were also evaluated using a doxycycline (Dox)-inducible transforming growth factor-α (TGFα)-transgenic mouse model of idiopathic pulmonary fibrosis (IPF) expressing lung-epithelial specific TGFα following Dox administration. […] Weekly lung micro-CT exams were used for assessment of fibrotic burden. Nintenadib (n=5) (100 mg/kg) was also evaluated for comparison. Lung tissue was examined microscopy in a subset of animals at the conclusion of the study.

[5] = ADME studies of ST-168 in mice; format: in vivo
Description: as §1

[6] = Mesenteric lymph duct cannulation rat model, lymphatic transport (FIG. 8); format: in vivo; details: 50 mg/kg intraduodenal, pretreatment with cycloheximide
Description: Evaluation of compound mechanism for lymphatic uptake was also undertaken.

[7] = mouse, mesenteric lymph node / plasma, read-out: lymph/plasma ratio
[8] = Table 14, read-out: IC50 (nM) PI3Kα
[9] = Table 14, read-out: IC50 (nM) PI3Kβ
[10] = Table 14, read-out: IC50 (nM) PI3Kδ
[11] = Table 14, read-out: IC50 (nM) PI3Kγ
[12] = Table 10B, inhibitory activity, unit inferred, read-out: PI3Kα

COc1ccc(-c2ccc3c(N4CCOC[C@H]4C)nc(N4CCOC[C@H]4C)nc3n2)cc1CO [AZD 8055]
IC50 (Class 1 PI3K isoforms): > 1 µM

O=C(NCCOCCOCCOCCNC(=O)c1ccccc1)c1ccccc1 [Compound 1]
Kp at 0.5 h ([1]; mouse, mesenteric lymph node / plasma, 0.5 hours, read-out: lymph/plasma ratio): ~0.6
Kp at 4 h [1, 7]: ~1
concentration at 4 h ([1]; mouse, mesenteric lymph node, read-out: lymphatic concentration): ~0.085 µg/mL
concentration at 4 h ([1]; mouse, plasma, read-out: plasma concentration): ~0.095 µg/mL

O=C(NCCCCCCCCCCCNC(=O)c1ccccc1)c1ccccc1 [Compound 2]
concentrations in tissues tested, compared to Compound 1 ([1]; plasma, mesenteric lymph node, fat): much lower concentrations in all tissues tested
Kp ([1]; mouse, mesenteric lymph node / plasma, between time points 0.5, 2, and 4 hours, read-out: lymph/plasma ratios): 3 to 5

O=C(NCCOCCOCCOCCNC(=O)c1cccc2ccccc12)c1cccc2ccccc12 [Compound 3]
Kp at 4 h [1, 7]: ~5

O=C(NCCCCCCCCCCCNC(=O)c1cccc2ccccc12)c1cccc2ccccc12 [Compound 4]
Kp at 4 h [1, 7]: ~6

O=C(NOC[C@H](O)CO)c1ccc(F)c(F)c1Nc1ccc(I)cc1F [Compound 901, reference compound]
Kp at 4 h [2]: ~1.2

O=C(O)CCOCCOCCOCCONC(=O)c1ccc(F)c(F)c1Nc1ccc(I)cc1F [MV6-8]
IC50 (MEK1): 72.3 ± 1.9 nM

CC(=O)N(C)CCNc1nc(N2CCOCC2)nc(-n2c(C(F)F)nc3ccccc32)n1 [ST-5-31]
IC50 (PI3Kα; [8]): 10.3 ± 1 nM
IC50 (PI3Kβ; [9]): 404 ± 63 nM
IC50 (PI3Kδ; [10]): 11.7 ± 2.2 nM
IC50 (PI3Kγ; [11]): 55.2 ± 11.5 nM

OCCN(CCO)c1nc(N2CCOCC2)nc(-n2c(C(F)F)nc3ccccc32)n1 [ST-5-32]
IC50 (PI3Kα; [8]): 3.74 ± 1 nM
IC50 (PI3Kβ; [9]): 74 ± 5.7 nM
IC50 (PI3Kδ; [10]): 9.9 ± 0.4 nM
IC50 (PI3Kγ; [11]): 14.6 ± 1.4 nM

CN(C)CCN(CCO)c1nc(N2CCOCC2)nc(-n2c(C(F)F)nc3ccccc32)n1 [ST-5-44]
IC50 (PI3Kα; [8]): 148 ± 22 nM
IC50 (PI3Kβ; [9]): 627 ± 174 nM
IC50 (PI3Kδ; [10]): 46.7 ± 3.3 nM
IC50 (PI3Kγ; [11]): 869 ± 11 nM

NOCCOCCOCCOCCN(CCO)c1nc(N2CCOCC2)nc(-n2c(C(F)F)nc3ccccc32)n1 [ST-5-46]
IC50 (PI3Kα; [8]): 10.9 ± 0.7 nM
IC50 (PI3Kβ; [9]): 1080 ± 143 nM
IC50 (PI3Kδ; [10]): 8.6 ± 1.2 nM
IC50 (PI3Kγ; [11]): 137 ± 21 nM

O=C(NOCCOCCOCCOCCN(CCO)c1nc(N2CCOCC2)nc(-n2c(C(F)F)nc3ccccc32)n1)c1ccc(F)c(F)c1Nc1ccc(I)cc1F [ST-5-47]
IC50 (PI3Kα; [8]): 107 ± 21 nM
IC50 (MEK1): 352 ± 2 nM
IC50 (PI3Kβ; [9]): 3880 ± 725 nM
IC50 (PI3Kδ; [10]): 137 ± 7 nM
IC50 (PI3Kγ; [11]): 2570 ± 364 nM

NOCCOCCOCCOCCNc1nc(N2CCOCC2)nc(-n2c(C(F)F)nc3ccccc32)n1 [ST-5-50]
IC50 (PI3Kα; [8]): 89.3 ± 9.5 nM
IC50 (PI3Kβ; [9]): 1870 ± 245 nM
IC50 (PI3Kδ; [10]): 12.6 ± 1 nM
IC50 (PI3Kγ; [11]): 502 ± 20 nM

COCCN(CCO)c1nc(N2CCOCC2)nc(-n2c(C(F)F)nc3ccccc32)n1 [ST-6-01]
IC50 (PI3Kα; [8]): 5.1 ± 1.1 nM
IC50 (PI3Kβ; [9]): 136 ± 6.4 nM
IC50 (PI3Kδ; [10]): 8.9 ± 0.5 nM
IC50 (PI3Kγ; [11]): 30.7 ± 0.9 nM

O=C(NOCCOCCOCCOCCNc1nc(N2CCOCC2)nc(-n2c(C(F)F)nc3ccccc32)n1)c1ccc(F)c(F)c1Nc1ccc(F)cc1F [ST-6-02]
IC50 (PI3Kα; [8]): 130 ± 13 nM
IC50 (MEK1): 124 ± 11 nM
IC50 (PI3Kβ; [9]): 1540 ± 188 nM
IC50 (PI3Kδ; [10]): 236 ± 29 nM
IC50 (PI3Kγ; [11]): 2740 ± 485 nM

O=C(NOCCOCCOCCOCCN1CCN(c2nc(N3CCOCC3)nc(-n3c(C(F)F)nc4ccccc43)n2)CC1)c1ccc(F)c(F)c1Nc1ccc(I)cc1F [ST-162]
IC50 (PI3Kα; [12]): 191 ± 64 nM
tumor growth (A375 xenografts): tumor stasis
IC50 (PI3Kδ; Table 10B, inhibitory activity, unit inferred, read-out: PI3Kδ): 942 ± 120 nM
down regulation of pERK1/2 and pAKT in cells (pERK1/2 and pAKT): down regulate

O=C(NOCCOCCOCCOCCC(=O)N1CCN(c2nc(N3CCOCC3)nc(-n3c(C(F)F)nc4ccccc43)n2)CC1)c1ccc(F)c(F)c1Nc1ccc(I)cc1F [ST-168]
IC50 (PI3Kα; [12]): 69.2 ± 2.2 nM
IC50 (PI3Kβ; Table 10B, inhibitory activity, unit inferred, read-out: PI3Kβ): 1480 ± 377 nM
in vivo activity for suppression of MEK1/PI3K kinase activities in solid tumors, compared to ST-162 (A375 xenografts; 400 mg/kg oral gavage once daily, A375 xenografts): superior in vivo activity
tumor growth (A375 xenografts): tumor stasis
tolerance / observed toxicities [3]: no observed toxicities
down regulation of pERK1/2 and pAKT in cells (pERK1/2 and pAKT): down regulate
IC50 (PI3Kγ; Table 10B, inhibitory activity, unit inferred, read-out: PI3Kγ): 2290 ± 241 nM
reversal of lung fibroproliferative disease and pleural thickness (CT) [4]: strong activity for reversal
bioavailability following administration [5]: bioavailable
Kp at 4 h [2]: ~120
partitioning between lymphatic/plasma over time ([2]; single oral dose of 400 mg/kg in ORA-Plus): maintained over a 24 hour time period
lymphatic uptake (tissue concentration levels) ([2]; single oral doses of 100 mg/kg and 400 mg/kg in Maisine, 2, 4, and 24 hour): extraordinarily high lymphatic uptake

O=C(NOCCOCCOCCOCCC(=O)N1CCN(c2cnc3ccc(-c4cnc(Cl)c(NS(=O)(=O)c5ccc(F)cc5)c4)cc3n2)CC1)c1ccc(F)c(F)c1Nc1ccc(I)cc1F [ST-182]
transport into the lymphatics after cycloheximide pretreatment [6]: significantly reduced
reversal of lung fibroproliferative disease and pleural thickness (CT) [4]: strong activity for reversal
